{
  "source": "the NIST ThermoML archive (doi:10.1021/je060217u)",
  "key": {"[1]": {"conditions": "298.15 K; 101 kPa; Liquid"}, "[2]": {"assay": "xn = mol fraction of the nth substance listed", "conditions": "298.15 K, 101 kPa, Liquid"}},
  "note": "Numbers after ± are expanded uncertainties.",
  "data": [
    {"smiles": "CCCCO", "note": "[butan-1-ol]", "values": [
      {"measurement": "mass density", "setting": "[1]", "value": "806.04 ± 0.56", "unit": "kg/m3"}
    ]},
    {"smiles": "CCCCO", "note": "[butan-1-ol] + COC(=O)OC", "values": [
      {"measurement": "mass density", "setting": "[2]; x1 = 1", "value": "806.04 ± 0.56", "unit": "kg/m3"}
    ]},
    {"smiles": "COC(=O)OC", "note": "[dimethyl carbonate]", "values": [
      {"measurement": "mass density", "setting": "[1]", "value": "1063.19 ± 0.31", "unit": "kg/m3"}
    ]},
    {"smiles": "COC(=O)OC", "note": "[dimethyl carbonate] + CCCCO", "values": [
      {"measurement": "mass density", "setting": "[2]; x2 = 0", "value": "1063.19 ± 0.31", "unit": "kg/m3"},
      {"measurement": "mass density", "setting": "[2]; x2 = 0.0502", "value": "1047.97 ± 0.28", "unit": "kg/m3"},
      {"measurement": "mass density", "setting": "[2]; x2 = 0.0999", "value": "1033.24 ± 0.26", "unit": "kg/m3"},
      {"measurement": "mass density", "setting": "[2]; x2 = 0.1499", "value": "1018.51 ± 0.23", "unit": "kg/m3"},
      {"measurement": "mass density", "setting": "[2]; x2 = 0.2003", "value": "1004.53 ± 0.21", "unit": "kg/m3"},
      {"measurement": "mass density", "setting": "[2]; x2 = 0.2501", "value": "990.53 ± 0.22", "unit": "kg/m3"},
      {"measurement": "mass density", "setting": "[2]; x2 = 0.2998", "value": "976.9 ± 0.25", "unit": "kg/m3"},
      {"measurement": "mass density", "setting": "[2]; x2 = 0.3499", "value": "963.39 ± 0.27", "unit": "kg/m3"},
      {"measurement": "mass density", "setting": "[2]; x2 = 0.4", "value": "950.13 ± 0.3", "unit": "kg/m3"},
      {"measurement": "mass density", "setting": "[2]; x2 = 0.4501", "value": "937.02 ± 0.33", "unit": "kg/m3"},
      {"measurement": "mass density", "setting": "[2]; x2 = 0.5", "value": "924.2 ± 0.35", "unit": "kg/m3"},
      {"measurement": "mass density", "setting": "[2]; x2 = 0.55", "value": "911.58 ± 0.37", "unit": "kg/m3"},
      {"measurement": "mass density", "setting": "[2]; x2 = 0.6", "value": "899.07 ± 0.39", "unit": "kg/m3"},
      {"measurement": "mass density", "setting": "[2]; x2 = 0.65", "value": "886.83 ± 0.41", "unit": "kg/m3"},
      {"measurement": "mass density", "setting": "[2]; x2 = 0.7", "value": "874.68 ± 0.43", "unit": "kg/m3"},
      {"measurement": "mass density", "setting": "[2]; x2 = 0.7499", "value": "862.98 ± 0.45", "unit": "kg/m3"},
      {"measurement": "mass density", "setting": "[2]; x2 = 0.7999", "value": "851.07 ± 0.47", "unit": "kg/m3"},
      {"measurement": "mass density", "setting": "[2]; x2 = 0.85", "value": "839.53 ± 0.49", "unit": "kg/m3"},
      {"measurement": "mass density", "setting": "[2]; x2 = 0.8999", "value": "828.11 ± 0.52", "unit": "kg/m3"},
      {"measurement": "mass density", "setting": "[2]; x2 = 0.9499", "value": "817 ± 0.54", "unit": "kg/m3"}
    ]},
    {"smiles": "COC(=O)OC", "note": "[dimethyl carbonate] + CCCO", "values": [
      {"measurement": "mass density", "setting": "[2]; x2 = 0", "value": "1063.19 ± 0.31", "unit": "kg/m3"},
      {"measurement": "mass density", "setting": "[2]; x2 = 0.0501", "value": "1050.5 ± 0.29", "unit": "kg/m3"},
      {"measurement": "mass density", "setting": "[2]; x2 = 0.1002", "value": "1037.73 ± 0.27", "unit": "kg/m3"},
      {"measurement": "mass density", "setting": "[2]; x2 = 0.1498", "value": "1025.44 ± 0.24", "unit": "kg/m3"},
      {"measurement": "mass density", "setting": "[2]; x2 = 0.1999", "value": "1012.47 ± 0.22", "unit": "kg/m3"},
      {"measurement": "mass density", "setting": "[2]; x2 = 0.2502", "value": "999.85 ± 0.21", "unit": "kg/m3"},
      {"measurement": "mass density", "setting": "[2]; x2 = 0.2999", "value": "987.13 ± 0.23", "unit": "kg/m3"},
      {"measurement": "mass density", "setting": "[2]; x2 = 0.3498", "value": "974.39 ± 0.26", "unit": "kg/m3"},
      {"measurement": "mass density", "setting": "[2]; x2 = 0.3998", "value": "961.45 ± 0.28", "unit": "kg/m3"},
      {"measurement": "mass density", "setting": "[2]; x2 = 0.4499", "value": "948.47 ± 0.31", "unit": "kg/m3"},
      {"measurement": "mass density", "setting": "[2]; x2 = 0.5001", "value": "935.29 ± 0.34", "unit": "kg/m3"},
      {"measurement": "mass density", "setting": "[2]; x2 = 0.55", "value": "922.19 ± 0.35", "unit": "kg/m3"},
      {"measurement": "mass density", "setting": "[2]; x2 = 0.6", "value": "908.92 ± 0.37", "unit": "kg/m3"},
      {"measurement": "mass density", "setting": "[2]; x2 = 0.6501", "value": "895.57 ± 0.4", "unit": "kg/m3"},
      {"measurement": "mass density", "setting": "[2]; x2 = 0.7001", "value": "882.18 ± 0.42", "unit": "kg/m3"},
      {"measurement": "mass density", "setting": "[2]; x2 = 0.75", "value": "868.68 ± 0.44", "unit": "kg/m3"},
      {"measurement": "mass density", "setting": "[2]; x2 = 0.8002", "value": "855.15 ± 0.47", "unit": "kg/m3"},
      {"measurement": "mass density", "setting": "[2]; x2 = 0.8501", "value": "841.36 ± 0.49", "unit": "kg/m3"},
      {"measurement": "mass density", "setting": "[2]; x2 = 0.9002", "value": "827.59 ± 0.52", "unit": "kg/m3"},
      {"measurement": "mass density", "setting": "[2]; x2 = 0.9502", "value": "813.83 ± 0.54", "unit": "kg/m3"}
    ]},
    {"smiles": "COC(=O)OC", "note": "[dimethyl carbonate] + CCO", "values": [
      {"measurement": "mass density", "setting": "[2]; x2 = 0", "value": "1063.19 ± 0.31", "unit": "kg/m3"},
      {"measurement": "mass density", "setting": "[2]; x2 = 0.0501", "value": "1052.75 ± 0.29", "unit": "kg/m3"},
      {"measurement": "mass density", "setting": "[2]; x2 = 0.1", "value": "1042.29 ± 0.27", "unit": "kg/m3"},
      {"measurement": "mass density", "setting": "[2]; x2 = 0.1501", "value": "1031.54 ± 0.25", "unit": "kg/m3"},
      {"measurement": "mass density", "setting": "[2]; x2 = 0.1998", "value": "1020.64 ± 0.24", "unit": "kg/m3"},
      {"measurement": "mass density", "setting": "[2]; x2 = 0.2498", "value": "1009.34 ± 0.22", "unit": "kg/m3"},
      {"measurement": "mass density", "setting": "[2]; x2 = 0.2998", "value": "997.73 ± 0.21", "unit": "kg/m3"},
      {"measurement": "mass density", "setting": "[2]; x2 = 0.3501", "value": "985.68 ± 0.24", "unit": "kg/m3"},
      {"measurement": "mass density", "setting": "[2]; x2 = 0.4002", "value": "973.28 ± 0.26", "unit": "kg/m3"},
      {"measurement": "mass density", "setting": "[2]; x2 = 0.4499", "value": "960.59 ± 0.29", "unit": "kg/m3"},
      {"measurement": "mass density", "setting": "[2]; x2 = 0.5", "value": "947.4 ± 0.32", "unit": "kg/m3"},
      {"measurement": "mass density", "setting": "[2]; x2 = 0.55", "value": "933.74 ± 0.34", "unit": "kg/m3"},
      {"measurement": "mass density", "setting": "[2]; x2 = 0.6001", "value": "919.57 ± 0.36", "unit": "kg/m3"},
      {"measurement": "mass density", "setting": "[2]; x2 = 0.65", "value": "905 ± 0.38", "unit": "kg/m3"},
      {"measurement": "mass density", "setting": "[2]; x2 = 0.6999", "value": "889.89 ± 0.41", "unit": "kg/m3"},
      {"measurement": "mass density", "setting": "[2]; x2 = 0.7499", "value": "874.1 ± 0.43", "unit": "kg/m3"},
      {"measurement": "mass density", "setting": "[2]; x2 = 0.8001", "value": "857.71 ± 0.46", "unit": "kg/m3"},
      {"measurement": "mass density", "setting": "[2]; x2 = 0.8498", "value": "840.7 ± 0.49", "unit": "kg/m3"},
      {"measurement": "mass density", "setting": "[2]; x2 = 0.8998", "value": "822.98 ± 0.53", "unit": "kg/m3"},
      {"measurement": "mass density", "setting": "[2]; x2 = 0.95", "value": "804.45 ± 0.56", "unit": "kg/m3"}
    ]},
    {"smiles": "CCO", "note": "[ethanol]", "values": [
      {"measurement": "mass density", "setting": "[1]", "value": "785.2 ± 0.6", "unit": "kg/m3"}
    ]},
    {"smiles": "CCO", "note": "[ethanol] + COC(=O)OC", "values": [
      {"measurement": "mass density", "setting": "[2]; x1 = 1", "value": "785.2 ± 0.6", "unit": "kg/m3"}
    ]},
    {"smiles": "CCCO", "note": "[propan-1-ol]", "values": [
      {"measurement": "mass density", "setting": "[1]", "value": "799.75 ± 0.57", "unit": "kg/m3"}
    ]},
    {"smiles": "CCCO", "note": "[propan-1-ol] + COC(=O)OC", "values": [
      {"measurement": "mass density", "setting": "[2]; x1 = 1", "value": "799.75 ± 0.57", "unit": "kg/m3"}
    ]}
  ]
}
